According to DBAASP:
In brackets after ≈: the same amount, converted by molar mass.

Legend:
Assay in all cases: ≥ marks a high value that may be exact or a test limit, other limits are often not marked, values filed in µg/mL are converted to µM
[1] = system: Staphylococcus aureus
[2] = system: Bacillus subtilis 168
[3] = system: Escherichia coli B
[4] = system: Pseudomonas aeruginosa
[5] = system: Escherichia coli ATCC 25922
[6] = system: Candida albicans
[7] = system: Bacillus subtilis ATCC 6633
[8] = system: Pseudomonas aeruginosa ATCC 27853
[9] = system: Enterococcus faecalis ATCC 29212
[10] = system: Salmonella enterica subsp. enterica serovar Typhimurium C77-31
[11] = system: Salmonella enterica subsp. enterica serovar Pullorum C79-13
[12] = system: Staphylococcus epidermidis ATCC 12228
[13] = system: Staphylococcus aureus ATCC 29213

MIC [1] [µM]	MIC [2] [µM]	MIC [3] [µM]	MIC [4] [µM]	SMILES	also measured
4.7 (≈ 9.46 µg/mL)	1.3 (≈ 2.62 µg/mL)	1.6 (≈ 3.22 µg/mL)	18.3 (≈ 36.8 µg/mL)	CC[C@H](C)[C@H](NC(=O)[C@H](CO)NC(=O)[C@H](CC(C)C)NC(=O)[C@H](Cc1ccccc1)NC(=O)CN)C(=O)N[C@@H](CC(C)C)C(=O)N[C@@H](CCCCN)C(=O)N[C@@H](CCCCN)C(=O)N[C@H](C(=O)N[C@@H](CC(C)C)C(=O)N[C@@H](C)C(=O)N[C@@H](CCCCN)C(=O)N[C@H](C(=O)N[C@@H](CCSC)C(=O)N[C@@H](C)C(=O)N[C@@H](Cc1cnc[nH]1)C(=O)N[C@@H](CCSC)C(=O)N[C@@H](CCCCN)C(N)=O)C(C)C)C(C)C [GFLSILKKVLAKVMAHMK]	–
12.2 (≈ 18.6 µg/mL)	1.3 (≈ 1.98 µg/mL)	5 (≈ 7.63 µg/mL)	25 (≈ 38.1 µg/mL)	CC[C@H](C)[C@H](NC(=O)[C@H](Cc1cnc[nH]1)NC(=O)[C@H](CCCCN)NC(=O)[C@H](CC(C)C)NC(=O)[C@H](CC(C)C)NC(=O)[C@H](CO)NC(=O)[C@H](CCSC)NC(=O)[C@H](Cc1c[nH]c2ccccc12)NC(=O)[C@H](CCCCN)NC(=O)CN)C(=O)N[C@@H](Cc1c[nH]c2ccccc12)C(=O)N[C@@H](CCCCN)C(N)=O [GKWMSLLKHIWK]	–
100 (≈ 142 µg/mL)	2.2 (≈ 3.13 µg/mL)	28.3 (≈ 40.3 µg/mL)	93 (≈ 133 µg/mL)	CC[C@H](C)[C@H](NC(=O)[C@H](CCCCN)NC(=O)[C@H](CO)NC(=O)[C@H](Cc1c[nH]c2ccccc12)NC(=O)[C@H](CCSC)NC(=O)CN)C(=O)N[C@@H](CC(C)C)C(=O)NCC(=O)N[C@@H](Cc1cnc[nH]1)C(=O)N[C@@H](CC(C)C)C(=O)N[C@@H](CCCCN)C(=O)N[C@@H](CCCN=C(N)N)C(N)=O [GMWSKILGHLKR]	–
> 100	3.3 (≈ 4.78 µg/mL)	20 (≈ 29 µg/mL)	> 100	CC[C@H](C)[C@H](NC(=O)[C@H](CC(C)C)NC(=O)[C@H](Cc1cnc[nH]1)NC(=O)[C@@H]1CCCN1C(=O)[C@H](CC(C)C)NC(=O)[C@@H](NC(=O)[C@H](CCCCN)NC(=O)[C@H](CO)NC(=O)[C@H](Cc1c[nH]c2ccccc12)NC(=O)[C@H](CCSC)NC(=O)CN)[C@@H](C)CC)C(=O)N[C@@H](CCCN=C(N)N)C(N)=O [GMWSKILPHLIR]	–
–	–	–	–	CC[C@H](C)[C@H](NC(=O)[C@H](CCC(=O)O)NC(=O)[C@H](CCCCN)NC(=O)[C@H](CCSC)NC(=O)[C@H](CCCCN)NC(=O)[C@H](C)NC(=O)[C@H](CC(C)C)NC(=O)[C@H](Cc1ccccc1)NC(=O)[C@H](C)NC(=O)[C@H](CCC(N)=O)NC(=O)[C@H](CC(C)C)NC(=O)[C@H](CCCN=C(N)N)NC(=O)CN)C(=O)N[C@@H](C)C(=O)N[C@@H](C)C(=O)N[C@@H](CCC(N)=O)C(=O)N[C@H](C(=O)N[C@@H](CC(C)C)C(N)=O)[C@@H](C)O [GRLQAFLAKMKEIAAQTL]	MIC [5]: 4.44 µM (≈ 8.84 µg/mL); MIC [6]: 1.77 µM (≈ 3.52 µg/mL); MIC [7]: 2.22 µM (≈ 4.41 µg/mL); MIC [8]: 7.1 µM (≈ 14.1 µg/mL)
> 100	≥ 40	≥ 40	> 100	CC[C@H](C)[C@H](N)C(=O)N[C@@H](CC(C)C)C(=O)NCC(=O)N[C@@H](CCCCN)C(=O)N[C@H](C(=O)N[C@H](C(=O)N[C@@H](CCCCN)C(=O)N[C@H](C(=O)N[C@H](C(=O)N[C@@H](CCCCN)C(N)=O)C(C)C)C(C)C)[C@@H](C)CC)[C@@H](C)CC [ILGKIIKVVK]	–
–	–	–	–	CC(C)C[C@H](NC(=O)[C@@H](NC(=O)[C@@H](NC(=O)[C@@H](N)CC(C)C)C(C)C)[C@@H](C)O)C(=O)N[C@H](C(=O)N[C@@H](Cc1ccccc1)C(=O)N[C@H](C(=O)NCC(=O)NCC(=O)NCC(=O)N[C@@H](Cc1c[nH]c2ccccc12)C(=O)N[C@@H](CCCCN)C(=O)N[C@@H](Cc1c[nH]c2ccccc12)C(=O)N[C@@H](CCCCN)C(=O)N[C@@H](Cc1c[nH]c2ccccc12)C(=O)N[C@@H](CCC(=O)O)C(=O)N[C@@H](CC(N)=O)C(=O)NCC(=O)N[C@@H](CCCCN)C(=O)N[C@@H](Cc1c[nH]c2ccccc12)C(=O)N[C@@H](CCCCN)C(=O)N[C@@H](Cc1c[nH]c2ccccc12)C(=O)N[C@@H](CCCCN)C(=O)N[C@@H](Cc1c[nH]c2ccccc12)C(=O)O)C(C)C)C(C)C [LVTLVFVGGGWKWKWENGKWKWKW]	MIC [9]: 8 µM (≈ 24.2 µg/mL); MIC [10]: ≥ 128 µM; MIC [5]: 64 µM (≈ 193 µg/mL); MIC [11]: ≥ 128 µM; MIC [12]: > 128 µM; MIC [13]: > 128 µM
